{"source": "patent US20210395306A1", "about": "“POLYPEPTIDES FOR THE TREATMENT OF STRESS, IMMUNOREACTION AND STROKE SYNDROMES” (Neopep Pharma GmbH & Co. KG, priority 2018, published 2021)", "test_system": "Pancreas carcinoma cells", "assay": "Cancer cell invasion assay on humanized rats with implanted pancreas carcinoma cells", "assay_type": "in vivo", "details": "pancreas carcinoma implant", "protocol": "The cancer cell invasion assay was performed on humanized rats (Eyol, E. et al., Oncology Reports, 28: 2177-2187, 2012). Pancreas carcinoma cells were implanted. The successful implant was observed by luminescent imaging as well as by an increase in CXCR4 expression.\nAfter a successful implant of carcinoma cells, the rats were treated with a peptide according to SEQ ID No. 1. The results after 1 week of therapy (1 w of therapy), after 2 weeks of therapy (2 w of therapy) and 2 weeks after end of therapy are depicted in the below table."}
{"sequence": "LVRYTQKAPQVS (human) [SEQ ID No. 1]", "values": [{"measurement": "Tumor growth / remission", "setting": "10 mg peptide, 1 w of therapy", "value": "No tumor growth"}, {"measurement": "Tumor growth / remission", "setting": "20 mg peptide, 1 w of therapy", "value": "No tumor growth"}, {"measurement": "Tumor growth / remission", "setting": "20 mg peptide, 2 w after end of therapy", "value": "Complete"}, {"measurement": "Tumor growth / remission", "setting": "20 mg peptide, 2 w of therapy", "value": "Complete"}, {"measurement": "Tumor growth / remission", "setting": "70 mg peptide, 1 w of therapy", "value": "No tumor growth"}, {"measurement": "Tumor growth / remission", "setting": "70 mg peptide, 2 w after end of therapy", "value": "Complete"}, {"measurement": "Tumor growth / remission", "setting": "70 mg peptide, 2 w of therapy", "value": "Remission"}]}
